Results taken from PubChem BioAssay (NCI).
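A five-concentration, 48-hour dose response in 96-well plates underlies each endpoint, interpolated linearly between surrounding concentrations. TGI: concentration producing complete growth inhibition.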

What was measured:
Assay in all cases: NCI tumour cell line growth inhibition, 48 h
[1] = system: DMS 114 small cell lung
[2] = system: DMS 273 small cell lung
[3] = system: KM20L2 colon
[4] = system: LXFL 529 NSCLC
[5] = system: XF 498 CNS
[6] = system: MDA-N
[7] = system: RXF-631 renal

SMILES	TGI [1] [µM]	TGI [2] [µM]	TGI [3] [µM]	TGI [4] [µM]	TGI [5] [µM]	TGI [6] [µM]	TGI [7] [µM]
C/C=C/C(=O)Oc1cccc2cccnc12	16.8	46.9	> 35.5	> 100	55.2	–	–
COc1cc(OCc2ccccc2)c2c(CCC(=O)O)cc(=O)oc2c1 (tested in a mixture with another compound)	–	–	–	–	–	> 100	–
Cc1cccc(NC(=O)C(=O)C(C2OC(=O)c3ccccc32)[N+](=O)[O-])c1C (centres undefined)	10.3	10.3	42.7	20.3	18.7	–	33.7
O=C(/C=C/c1ccc(Cl)c(Cl)c1)c1ccccc1Cl	11.2	14.5	23.7	19.6	33.3	–	31.4
C[P+]1(Cc2ccccc2)CCCC1	> 100	> 100	> 100	> 100	–	–	–
O=C(O)c1ccc2c(c1)C(=O)N(c1ccc(S(=O)(=O)c3ccc(N4C(=O)c5ccc(C(=O)O)cc5C4=O)cc3)cc1)C2=O	> 100	> 100	> 100	> 100	> 100	–	–
CC(=O)OC1CCC2OOC1O2 (centres undefined)	> 100	> 100	> 100	–	–	–	–
CN(c1ccccc1)c1cc2ccccc2nn1	> 100	> 100	> 100	> 100	> 100	–	> 100
C/C(=N\NC(=O)c1ccncc1)c1sc(-n2nc(-c3ccccc3)cc2-c2ccccc2)nc1C	–	–	–	–	–	> 100	–
Nc1cccc2c1-c1c(cccc1[N+](=O)[O-])C2=O	> 100	> 100	> 100	–	–	–	–
Cc1ccc(S(=O)(=O)OCOS(=O)(=O)c2ccc(C)cc2)cc1	> 100	> 100	> 100	> 100	–	–	–
C[C@]12CC[C@H](O[C@@H]3O[C@H](CO[C@@H]4O[C@H](CO)[C@@H](O)[C@H](O)[C@H]4O)[C@@H](O)[C@H](O)[C@H]3O)C[C@@H]1CC[C@@H]1[C@@H]2CC[C@]2(C)[C@@H](C3=CC(=O)OC3)CC[C@]12O	–	–	–	–	–	93.5	–
CC(=Nc1ccc(N(C)C)cc1)c1ccccc1	–	–	–	–	–	52.2	–
C/C=C(\N=C=S)C(=O)OC1C(COC(C)=O)OC([C@]2(O)CC(=O)C(=N)C(C(=O)O)=C2O)C(O)C1OC1CC(OC)C(O)([C@@H](C)OC(=O)[C@@H](C)CC)C(C)O1 (some centres undefined)	14.9	32.1	18.5	4.16	5.92	26.5	–
c1ccc(C2=NOC3C4CCC(C4)C23)cc1 (centres undefined)	> 100	> 100	–	> 100	–	–	–
Cc1ccccc1NC(=O)/C(=N\NC(N)=S)C(C#N)c1ccccc1 (centres undefined)	> 100	> 100	> 100	> 100	–	–	> 100
Cn1[nH]cc2ccc3nc4ccccc4c(=O)c3c21	> 100	> 100	> 100	> 100	–	–	> 66.1
NS(=O)(=O)c1ccc(N=Nc2ccc[nH]c2=O)cc1	–	–	–	–	–	> 100	–
COc1cccc2c1C(=O)c1c(O)c3c(c(O)c1C2=O)C[C@@](O)(C(=O)CO)CC3OC1CC(N)C(OC2CCCCO2)C(C)O1 (some centres undefined)	–	7.18	4.98	3.14	1.47	0.362	–
CCC12C=CCN(CCc3c([nH]c4ccccc34)/C=C\1)C2 (centres undefined)	> 100	> 100	> 100	> 100	> 100	–	> 100
N#C/C(=C\c1cc(O)c(O)c(O)c1)C(N)=O	> 100	> 100	> 100	> 100	> 100	> 100	> 100
